pIC50: −log10 of the molar value.
Experiments:
Experiment in all cases: cells
[1] = system: HL-60; format: functional, cell-based; conditions: Homo sapiens;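 note: growth inhibition of human HL-60 cells, read out with a cell viability assay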
Description: SANGER: Inhibition of human HL-60 cell growth in a cell viability assay.

[2] = system: COLO-684; format: functional, cell-based; conditions: Homo sapiens
Description: SANGER: Inhibition of human COLO-684 cell growth in a cell viability assay.

[3] = system: SW872; format: functional, cell-based, Homo sapiens; conditions: Homo sapiens, SW872;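 note: growth inhibition of SW872 cells, read out by a viability assay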
Description: SANGER: Inhibition of human SW872 cell growth in a cell viability assay.

[4] = system: D-542MG; format: functional, cell-based, Homo sapiens; conditions: Homo sapiens, D-542MG
Description: SANGER: Inhibition of human D-542MG cell growth in a cell viability assay.

[5] = system: JAR; format: functional, cell-based, Homo sapiens; conditions: Homo sapiens, JAR;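 note: growth inhibition of human JAR cells determined with a cell viability assay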
[6] = system: no-11; format: functional, cell-based, Homo sapiens; conditions: Homo sapiens;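 note: growth inhibition of human NO-11 cells, read out with a cell viability assay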
Description: SANGER: Inhibition of human no-11 cell growth in a cell viability assay.

[7] = system: DU-4475; format: functional, cell-based; conditions: Homo sapiens
Description: SANGER: Inhibition of human DU-4475 cell growth in a cell viability assay.

[8] = system: KARPAS-299; format: functional, cell-based; conditions: Homo sapiens
Description: SANGER: Inhibition of human KARPAS-299 cell growth in a cell viability assay.

[9] = system: SK-LMS-1; format: functional, cell-based, Homo sapiens; conditions: Homo sapiens, SK-LMS-1;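 note: growth inhibition of human SK-LMS-1 cells, read out with a cell viability assay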
Description: SANGER: Inhibition of human SK-LMS-1 cell growth in a cell viability assay.

[10] = system: BB65-RCC; format: functional, cell-based, Homo sapiens; conditions: Homo sapiens, BB65-RCC;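 note: growth inhibition of the cell line, measured with a cell viability assay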
Description: SANGER: Inhibition of human BB65-RCC cell growth in a cell viability assay.

[11] = system: TE-8; format: functional, cell-based, Homo sapiens; conditions: Homo sapiens, TE-8;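 note: growth inhibition of TE-8 cells, measured with a cell viability readout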
Description: SANGER: Inhibition of human TE-8 cell growth in a cell viability assay.

[12] = system: DEL; format: functional, cell-based; conditions: Homo sapiens;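 note: growth inhibition of the human DEL cell line, read out with a cell viability assay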
Description: SANGER: Inhibition of human DEL cell growth in a cell viability assay.

[13] = system: NCI-H209; format: functional, cell-based; conditions: Homo sapiens;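 note: growth inhibition of human NCI-H209 cells, measured by a cell viability assay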
Description: SANGER: Inhibition of human NCI-H209 cell growth in a cell viability assay.

[14] = system: SNU1; format: functional, cell-based; conditions: Homo sapiens;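 note: growth inhibition of human NCI-SNU-1 cells, measured with a cell viability assay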
Description: SANGER: Inhibition of human NCI-SNU-1 cell growth in a cell viability assay.

[15] = system: NCI-H1770; format: functional, cell-based; conditions: Homo sapiens;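 note: growth inhibition of NCI-H1770 cells determined with a viability readout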
Description: SANGER: Inhibition of human NCI-H1770 cell growth in a cell viability assay.

[16] = system: LNCaP-Clone-FGC; format: functional, cell-based, Homo sapiens; conditions: Homo sapiens, LNCaP-Clone-FGC
[17] = system: NCI-H23; format: functional, cell-based, Homo sapiens; conditions: Homo sapiens, NCI-H23;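 note: cell viability assay measuring growth inhibition of NCI-H23 cells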
[18] = system: COLO-829; format: functional, cell-based, Homo sapiens; conditions: Homo sapiens, COLO-829
Description: SANGER: Inhibition of human COLO-829 cell growth in a cell viability assay.

[19] = system: SK-MEL-1; format: functional, cell-based; conditions: Homo sapiens;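 note: growth inhibition of human SK-MEL-1 cells, read out by a cell viability assay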
Description: SANGER: Inhibition of human SK-MEL-1 cell growth in a cell viability assay.

[20] = system: UACC-257; format: functional, cell-based, Homo sapiens; conditions: Homo sapiens, UACC-257
Description: SANGER: Inhibition of human UACC-257 cell growth in a cell viability assay.

[21] = system: NCI-H526; format: functional, cell-based; conditions: Homo sapiens;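 note: growth inhibition of the human NCI-H526 cell line, measured by a cell viability assay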
Description: SANGER: Inhibition of human NCI-H526 cell growth in a cell viability assay.

[22] = system: ACN; format: functional, cell-based, Homo sapiens; conditions: Homo sapiens, ACN;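 note: growth inhibition of the human ACN cell line, read out via cell viability testing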
Description: SANGER: Inhibition of human ACN cell growth in a cell viability assay.

[23] = system: MZ2-MEL; format: functional, cell-based, Homo sapiens; conditions: Homo sapiens, MZ2-MEL;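 note: growth inhibition of MZ2-MEL cells read out with a cell viability assay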
Description: SANGER: Inhibition of human MZ2-MEL cell growth in a cell viability assay.

[24] = system: TE-5; format: functional, cell-based, Homo sapiens; conditions: Homo sapiens, TE-5;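 note: inhibition of cell growth, read out by a cell viability assay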
Description: SANGER: Inhibition of human TE-5 cell growth in a cell viability assay.

[25] = system: HT-144; format: functional, cell-based, Homo sapiens; conditions: Homo sapiens, HT-144
Description: SANGER: Inhibition of human HT-144 cell growth in a cell viability assay.

Row | Compound | pIC50 [1] | pIC50 [2] | pIC50 [3] | pIC50 [5] | pIC50 [6] | pIC50 [7] | pIC50 [8] | pIC50 [9] | pIC50 [10] | pIC50 [11] | pIC50 [12] | pIC50 [13] | pIC50 [14] | pIC50 [15] | pIC50 [16] | pIC50 [17] | pIC50 [18] | pIC50 [19] | pIC50 [20] | pIC50 [21] | further results
1 | O=C(/C=C/c1ccccc1)NC(NC(=S)Nc1cccc2cccnc12)C(Cl)(Cl)Cl (stereo unspecified) [SALUBRINAL] | 4.88 | < 4.80 | < 4.80 | < 4.80 | < 4.80 | < 4.80 | < 4.80 | < 4.80 | < 4.80 | < 4.80 | < 4.80 | < 4.80 | < 4.80 | < 4.80 | < 4.80 | < 4.80 | < 4.80 | < 4.80 | < 4.80 | < 4.80 | pIC50 [4]: 4.87; pIC50 [22]: < 4.80; pIC50 [23]: < 4.80; pIC50 [24]: < 4.80; pIC50 [25]: < 4.80
2 | CN1CCN(CCOc2cc(OC3CCOCC3)c3c(Nc4c(Cl)ccc5c4OCO5)ncnc3c2)CC1 [SARACATINIB] | < 5.70 | < 5.70 | < 5.70 | < 5.70 | < 5.70 | < 5.70 | < 5.70 | < 5.70 | < 5.70 | 6.06 | < 5.70 | < 5.70 | < 5.70 | < 5.70 | < 5.70 | < 5.70 | < 5.70 | < 5.70 | < 5.70 | < 5.70 | pIC50 [22]: < 5.70; pIC50 [23]: < 5.70; pIC50 [24]: < 5.70; pIC50 [25]: < 5.70
3 | CO[C@H]1C[C@@H]2CC[C@@H](C)[C@@](O)(O2)C(=O)C(=O)N2CCCC[C@H]2C(=O)O[C@H]([C@H](C)C[C@@H]2CC[C@@H](O)[C@H](OC)C2)CC(=O)[C@H](C)/C=C(\C)[C@@H](O)[C@@H](OC)C(=O)[C@H](C)C[C@H](C)/C=C/C=C/C=C/1C [SIROLIMUS] | < 7.00 | 7.40 | 9.07 | < 7.00 | 7.08 | < 7.00 | 7.21 | 8.60 | < 7.00 | < 7.00 | 7.74 | 7.06 | < 7.00 | < 7.00 | < 7.00 | < 7.00 | < 7.00 | < 7.00 | < 7.00 | 7.03 | pIC50 [22]: < 7.00; pIC50 [23]: < 7.00; pIC50 [24]: < 7.00; pIC50 [25]: < 7.00
4 | CCC(=O)N1CCN(c2ccc(-n3c(=O)ccc4cnc5ccc(-c6cnc7ccccc7c6)cc5c43)cc2C(F)(F)F)CC1 [TORIN1] | 6.83 | 7.34 | 7.65 | 6.94 | 7.86 | 7.04 | 6.91 | 7.85 | 7.43 | 7.04 | 7.55 | 6.64 | < 5.92 | < 5.92 | < 5.92 | 7.07 | 6.68 | < 5.92 | 7.01 | 6.04 | pIC50 [22]: 7.82; pIC50 [23]: 7.63; pIC50 [24]: 7.41; pIC50 [25]: 7.84
5 | Cc1cc(Nc2cc(N3CCN(C)CC3)nc(Sc3ccc(NC(=O)C4CC4)cc3)n2)n[nH]1 [TOZASERTIB] | 5.97 | < 5.70 | < 5.70 | < 5.70 | < 5.70 | 5.99 | < 5.70 | 5.91 | 5.93 | 5.74 | 5.90 | < 5.70 | < 5.70 | < 5.70 | < 5.70 | < 5.70 | < 5.70 | < 5.70 | < 5.70 | < 5.70 | pIC50 [22]: < 5.70; pIC50 [23]: < 5.70; pIC50 [24]: < 5.70; pIC50 [25]: 6.20

— ChEMBL document CHEMBL1201861, “Genomics of Drug Sensitity in Cancer screening data, Wellcome Trust Sanger Institute”
